# Experimental data published in patent US20230265069A1, “Small Molecule Inhibitors That Block the Budding of Enveloped Viruses” (priority 2020, published 2023).
# Read-outs that look alike come from different tables or passages of the source.
# Assays:
# HIV-1 = details: 293T cells in culture; cited from earlier work
# ENO1 = ENO1 (Homo sapiens, UniProt P06733); assay: FTS assay on unrelated protein ENO1; details: specificity control
# Description: (§1) Fluorescence thermal shift (FTS) screening to identify small molecule binding to Tsg101-UEV. FTS using thermal shift elicited by the small molecule binding effect to protein stability. FTS monitors protein thermal denaturation using environment-sensitive dye Sypro® Orange which fluoresces when bound to hydrophobic surfaces, taking advantage of the changes in hydrophobic surface exposure in protein denaturation. Discovery of small molecule binding to target protein utilizes the observation that ligand binding affects protein thermal stability, and therefore can be detected through a shift in the protein's thermal denaturation (melting) temperature (Tm). We have employed FTS to reveal changes in thermodynamic properties of Tsg101 elicited by its interaction with a small molecule. The recombinant Tsg101 fragment (amino acids 1-145), prepared as described above in Materials and Methods (but without label) has a thermal unfolding profile suitable for using FTS as a primary screen assay in HTS. A fluorescence dye Sypro® Orange (Invitrogen) was used for assay detection. The dye is excited at 473 nm and has a fluorescence emission at 610 nm. The dye binds to hydrophobic regions of a protein that are normally buried in a native protein structure. […] Fluorescence was detected on a real-time PCR machine CFX384 (Bio-Rad Laboratories).
# [1] = biological target: T1, Tsg101-UEV (Tsg101 amino acids 1-145) (Homo sapiens, UniProt Q99816); assay: Fluorescence thermal shift (FTS) assay, binding to Tsg101-UEV; details: for Tm shift of Tsg101 in the FTS assay on addition of DTT: with reducing agent DTT
# T1 sequence (Q99816 1-145): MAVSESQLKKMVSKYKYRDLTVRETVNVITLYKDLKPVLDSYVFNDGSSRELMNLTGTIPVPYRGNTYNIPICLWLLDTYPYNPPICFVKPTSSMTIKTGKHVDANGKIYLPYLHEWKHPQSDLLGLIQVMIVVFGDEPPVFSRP
# Description: The fluorescence-based thermal shift assay is based on the observation that a protein unfolds upon heating, exposing the hydrophobic residues within its tertiary structure. The unfolding temperature (Tm) is determined by the protein's primary sequence and solution environment. The FTS assay uses a fluorescent dye sensitive to a hydrophobic environment to probe protein stability and its modulation by small molecule ligands. The dye has a low fluorescence quantum yield when in a polar environment. Once in contact with the hydrophobic core normally buried within a folded protein that has become exposed during the thermal unfolding (melting) process, the quantum yield of the dye increases, thus providing a reporting signal. Furthermore, a protein's stability can be affected by ligand binding, resulting in an increase or decrease in its melting temperature. FTS assay uses the Tm shift upon binding of a ligand to identify hit compounds for drug discovery.
# We screened chemical compounds using a fluorescence thermal shift (FTS) assay (27, 28) to identify small molecules that bind directly to a truncated form of Tsg101 (amino acids 1-145) which contains the Ubiquitin E2 variant (UEV) ubiquitin-binding domain (FIG. 1A, 1B, 1C). […] This truncated Tsg101, called Tsg101-UEV, was used because full-length Tsg101 has significant solubility issues in aqueous solution. Tsg101 is an adaptor protein and thus lacks a readily deployable functional assay, making FTS a tractable approach to identify interacting compounds. FTS monitors protein thermal denaturation using SYPRO® Orange, a dye which fluoresces when bound to hydrophobic surfaces, which allows monitoring of the changes in hydrophobic surface exposure during protein denaturation (27). Since ligand binding affects protein thermal stability, it can be detected through modulation of protein thermal denaturation (melting) as a shift in melting temperature (Tm). Tsg101-UEV has a well-defined melting curve suitable for FTS. We used the FTS assay to identify compounds that bind to Tsg101-UEV.
# Fluorescence thermal shift (FTS) screening to identify small molecule binding to Tsg101-UEV. FTS using thermal shift elicited by the small molecule binding effect to protein stability. FTS monitors protein thermal denaturation using environment-sensitive dye Sypro® Orange which fluoresces when bound to hydrophobic surfaces, taking advantage of the changes in hydrophobic surface exposure in protein denaturation. Discovery of small molecule binding to target protein utilizes the observation that ligand binding affects protein thermal stability, and therefore can be detected through a shift in the protein's thermal denaturation (melting) temperature (Tm). We have employed FTS to reveal changes in thermodynamic properties of Tsg101 elicited by its interaction with a small molecule. […] A fluorescence dye Sypro® Orange (Invitrogen) was used for assay detection. The dye is excited at 473 nm and has a fluorescence emission at 610 nm. The dye binds to hydrophobic regions of a protein that are normally buried in a native protein structure. […] The Tsg101 fragment was premixed at a concentration of 2 μM with a 5× concentration of Sypro® Orange in HEPES buffer (100 mM HEPES, 150 mM NaCl, pH 7.5). Then 10 μl of the protein-dye mix was added to an assay plate and 10 to 50 nanoliters of compound, equal to 10 to 50 μM, were added with an acoustic transfer robot Echo550 (Labcyte, CA).
# HSV-2 [2] = assay: Transmission electron microscopy of HSV-2 infected Vero cells, particle counts; details: 105 tenatoprazole, 24 h, HSV-2, 80 cells
# Description: Vero cells grown on glass cover slips were infected with HSV-2 at MOI of 0.1 pfu/cell for 2 h and then treated for 24 h with 105 μM tenatoprazole or vehicle control.
# Transmission electron Microscopy. Vero cells on glass cover slips were infected with HSV-2 at a MOI of 0.1 for two hours. Then 105 μM of tenatoprazole or 18 μM Ilaprazole was added and cells incubated for 24 hours. Tissue samples were fixed in 0.1 M sodium cacodylate buffer pH 7.3 containing 2% paraformaldehyde and 2.5% glutaraldehyde and post-fixed with 2% osmium tetroxide 427 in unbuffered aqueous solution. The samples were rinsed with distilled water, en bloc stained with 3% uranyl acetate, rinsed with distilled water, dehydrated in ascending grades of ethanol, transitioned with propylene oxide, embedded in the resin mixture of Embed 812 kit and cured in a 60° C. oven. Samples were sectioned on a Leica Ultracut UC6 ultramicrotome. 1 μm thick sections were collected and stained with Toluidine Blue O and 70 nm sections were collected on 200 mesh copper grids; thin sections were stained with uranyl acetate and Reynolds lead citrate. Transmission electron microscopy (TEM) was performed on a FEI Tecnai Spirit G2.
# HSV-1 = HSV-1 release from infected Vero cells, plaque assay
# DHPH = assay: FTS assay on unrelated protein DHPH; details: specificity control
# Description: as §1
# Vero cells = assay: Vero cell viability, 96 AQueous One Solution cell proliferation assay; assay type: cell-based
# Description: Drug potency and cell toxicity. […] Cell toxicity experiments were repeated twice.
# HSV-2 [3] = assay: HSV-2 release from infected Vero cells, plaque assay; details: for Titer of HSV-2 Media 48 h / Titer of HSV-2 Media, 24 h / Total Titer HSV-2 Media + Cell Lysate, 24 h: Vero cells; for EC50: read-out: EC50 (μM) Inhibition of HSV-2 Budding at 24 h
# MEK4 = biological target: T2, MEK4 (Homo sapiens, UniProt P45985); assay: FTS assay on unrelated protein MEK4; details: specificity control
# T2 sequence (P45985 1-399): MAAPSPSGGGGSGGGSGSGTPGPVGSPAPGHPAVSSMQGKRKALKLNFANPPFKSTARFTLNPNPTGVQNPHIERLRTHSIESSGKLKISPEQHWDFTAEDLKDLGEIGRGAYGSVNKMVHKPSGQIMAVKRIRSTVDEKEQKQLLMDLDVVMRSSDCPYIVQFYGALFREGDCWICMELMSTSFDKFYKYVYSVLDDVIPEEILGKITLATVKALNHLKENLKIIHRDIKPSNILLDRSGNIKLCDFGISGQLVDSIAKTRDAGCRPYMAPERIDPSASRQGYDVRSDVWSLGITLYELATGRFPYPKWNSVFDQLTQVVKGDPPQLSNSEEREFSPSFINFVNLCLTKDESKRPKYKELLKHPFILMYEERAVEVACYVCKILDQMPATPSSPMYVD
# Description: as §1
# [4] = Tenatoprazole 52 μM, Vero cells
# [5] = Tenatoprazole 79 μM, Vero cells
# [6] = Tenatoprazole 105 μM, Vero cells
# [7] = Tenatoprazole 131 μM, Vero cells
# [8] = Tenatoprazole 157 μM, Vero cells
# [9] = HSV-2 infected Vero cells, virus released into media, plaque assay
# ENO1, sequence (P06733 whole entry, the tested form may be a part): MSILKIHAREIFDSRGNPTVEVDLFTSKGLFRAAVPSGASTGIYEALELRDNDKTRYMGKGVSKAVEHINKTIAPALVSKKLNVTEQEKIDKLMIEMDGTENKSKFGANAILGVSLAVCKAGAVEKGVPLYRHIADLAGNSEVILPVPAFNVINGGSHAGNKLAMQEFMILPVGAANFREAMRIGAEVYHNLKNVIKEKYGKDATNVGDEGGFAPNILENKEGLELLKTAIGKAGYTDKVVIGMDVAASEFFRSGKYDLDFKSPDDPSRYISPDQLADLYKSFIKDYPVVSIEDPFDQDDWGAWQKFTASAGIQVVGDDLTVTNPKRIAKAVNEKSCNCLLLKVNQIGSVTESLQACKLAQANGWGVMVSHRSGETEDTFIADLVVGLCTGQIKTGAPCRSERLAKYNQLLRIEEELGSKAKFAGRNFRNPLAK
compound,measurement,setting,value
Tenatoprazole,Inhibition of release of infectious HIV-1 from 293T cells (earlier report),HIV-1,quantitatively inhibit
same,Tm shift of ENO1,ENO1,did not observe a Tm shift
same,Thermal shift (Tm shift) of Tsg101-UEV caused by compound,"[1]; FTS dose response, result in words",dose-dependent shift in the Tm
same,Tm shift of Tsg101 in the FTS assay on addition of DTT,[1],abolishes the Tm shift
same,Average number of virus particles in the nucleus,HSV-2 [2],31 particles
same,Virus particles in the cytoplasm,HSV-2 [2],did not detect virus particles
same,"Titer of HSV-1 Media, 48 H",HSV-1; [4],1.4E+07
same,"Titer of HSV-1 Media, 24 h",HSV-1; [4],2.90E+05
same,"Titer of HSV-1 Media, 48 H",HSV-1; [5],8.0E+06
same,"Titer of HSV-1 Media, 24 h",HSV-1; [5],1.30E+05
same,"Titer of HSV-1 Media, 48 H",HSV-1; [6],5.3E+05
same,"Titer of HSV-1 Media, 24 h",HSV-1; [6],5.40E+04
same,"Titer of HSV-1 Media, 48 H",HSV-1; [7],3.5E+04
same,"Titer of HSV-1 Media, 24 h",HSV-1; [7],2.40E+03
same,"Titer of HSV-1 Media, 48 H",HSV-1; [8],1.0E+02
same,"Titer of HSV-1 Media, 24 h",HSV-1; [8],1.30E+02
same,Drop of HSV-1 in released infectious virus,"HSV-1; Vero cells, 24 hours after infection",3 log
same,Duration of inhibition of virus release,"HSV-1; against either virus (HSV-1, HSV-2), data not shown",began to fall off after 48 h
same,EC50,"HSV-1; read-out: EC50, inhibition of HSV-1 release, Vero cells, 24 h, range stated jointly for HSV-1 and HSV-2",48 to 80 µM
same,Tm shift of DHPH,DHPH,did not observe a Tm shift
same,Cell toxicity at concentrations that block virus release,"Vero cells; 24 h, result in words",nontoxic
same,"Viability of OD 490 nm, 24 h",Vero cells; Tenatoprazole 52 μM,1.724
same,"Viability of OD 490 nm, 24 h",Vero cells; Tenatoprazole 60 μM,1.759
same,"Viability of OD 490 nm, 24 h",Vero cells; Tenatoprazole 79 μM,1.742
same,"Viability of OD 490 nm, 24 h",Vero cells; Tenatoprazole 105 μM,1.777
same,"Viability of OD 490 nm, 24 h",Vero cells; Tenatoprazole 131 μM,1.714
same,"Viability of OD 490 nm, 24 h",Vero cells; Tenatoprazole 200 μM,0.872
same,Titer of HSV-2 Media 48 h,HSV-2 [3]; Tenatoprazole 52 μM,1.30E+06
same,"Titer of HSV-2 Media, 24 h",HSV-2 [3]; Tenatoprazole 52 μM,6.50E+04
same,"Total Titer HSV-2 Media + Cell Lysate, 24 h",HSV-2 [3]; Tenatoprazole 52 μM,4.00E+06
same,Titer of HSV-2 Media 48 h,HSV-2 [3]; Tenatoprazole 60 μM,5.60E+04
same,"Titer of HSV-2 Media, 24 h",HSV-2 [3]; Tenatoprazole 60 μM,1.00E+03
same,"Total Titer HSV-2 Media + Cell Lysate, 24 h",HSV-2 [3]; Tenatoprazole 60 μM,2.30E+04
same,Titer of HSV-2 Media 48 h,HSV-2 [3]; Tenatoprazole 79 μM,4.80E+03
same,"Titer of HSV-2 Media, 24 h",HSV-2 [3]; Tenatoprazole 79 μM,2.50E+02
same,"Total Titer HSV-2 Media + Cell Lysate, 24 h",HSV-2 [3]; Tenatoprazole 79 μM,1.50E+03
same,Titer of HSV-2 Media 48 h,HSV-2 [3]; Tenatoprazole 105 μM,1.80E+02
same,"Titer of HSV-2 Media, 24 h",HSV-2 [3]; Tenatoprazole 105 μM,0.00E+00
same,"Total Titer HSV-2 Media + Cell Lysate, 24 h",HSV-2 [3]; Tenatoprazole 105 μM,6.00E+02
same,"Titer of HSV-2 Media, 24 h",HSV-2 [3]; Tenatoprazole 131 μM,0.00E+00
same,"Total Titer HSV-2 Media + Cell Lysate, 24 h",HSV-2 [3]; Tenatoprazole 131 μM,3.00E+02
same,EC50,HSV-2 [3]; [9],84 µM
same,Tm shift of MEK4,MEK4,did not observe a Tm shift
Rabeprazole,Tm shift of Tsg101 in the FTS assay on addition of DTT,[1],abolishes the Tm shift
same,EC50 (μM) Inhibition of HSV-2 Budding at 24 h,HSV-2 [3]; [9],inactive
Dexlansoprazole,EC50,HSV-2 [3]; [9],76 µM
COc1ccc2[nH]c([S+]([O-])Cc3ncc(C)c(OC)c3C)nc2c1 (stereo not drawn) [Omeprazole],EC50,"HSV-2 [3]; Human alphaherpesvirus 2, Vero, 24 h",78 µM
4-desmethoxy-omeprazole,EC50,HSV-2 [3]; [9],52 µM
